This note sets out measurements from patent US9133183B2, “Imidazolidinones and analogs exhibiting anti-cancer and anti-proliferative activities” (Deciphera Pharmaceuticals, LLC, priority 2013, dated 2015).

The target of assay [1] is unphosphorylated c-FMS kinase (uFMS, Seq. ID no. 1) (Homo sapiens (Human), UniProt P07333). Nature of the assay: uFMS kinase assay (ADP production coupled to pyruvate kinase/lactate dehydrogenase). It counts as biochemical. Particulars: enzymatic assay, ATP 500 μM; read-out: uFMS. The procedure: uFMS kinase (Seq. ID No. 1) Assay
In this assay, the oxidation of NADH (thus the decrease at A340 nm) was continuously monitored spectrophometrically. The reaction mixture (100 μL) contained FMS (purchased from Millipore) (10 nM), polyE4Y (1 mg/mL), MgCl2 (10 mM), pyruvate kinase (4 units), lactate dehydrogenase (0.7 units), phosphoenol pyruvate (1 mM), NADH (0.28 mM) and ATP (500 μM) in 90 mM Tris buffer containing 0.2% octyl-glucoside and 1% DMSO, pH 7.5. The inhibition reaction was started by mixing serial diluted test compound with the above reaction mixture. The absorption at 340 nm was monitored continuously for 4 hours at 30° C. on Synergy 2 plate reader. The reaction rate was calculated using the 3 to 4 h time frame. Percent inhibition was obtained by comparison of reaction rate with that of a control (i.e., in the absence of test compound). IC50 values were calculated from a series of percent inhibition values determined at a range of inhibitor concentrations using software routines as implemented in the GraphPad Prism software package.
uFMS Kinase Sequence (Y538-End) Used for Screening (Seq. ID No. 1)

Assay [2] concerns the target unphosphorylated c-KIT kinase (uKIT, Seq. ID no. 2) (Homo sapiens (Human), UniProt P10721). Nature of the assay: uKit kinase assay (coupled pyruvate kinase/lactate dehydrogenase). It is filed as biochemical. The following applies: enzymatic assay, ATP 2000 μM. As to the method:
uKit Kinase (Seq. ID No. 2) Assay
Activity of unphosphorylated c-KIT kinase (uKIT, Seq. ID no. 2) was determined by following the production of ADP from the KIT kinase reaction with ATP and poly E4Y as substrates through coupling with the pyruvate kinase/lactate dehydrogenase system (e.g., Schindler et al. Science (2000) 289: 1938-1942). In this assay, the oxidation of NADH (thus the decrease at A340 nm) was continuously monitored spectrophometrically. The reaction mixture (100 μl) contained unphosphorylated KIT (12 nM), polyE4Y (1 mg/mL), MgCl2 (10 mM), pyruvate kinase (4 units), lactate dehydrogenase (0.7 units), phosphoenol pyruvate (1 mM), and NADH (0.28 mM) and ATP (2000 μM) in 90 mM Tris buffer containing 0.2% octyl-glucoside and 1% DMSO, pH 7.5. The inhibition reaction was started by mixing serial diluted test compound with the above reaction mixture. The absorption at 340 nm was monitored continuously for 4 hours at 30° C. on Synergy 2 plate reader (BioTech). Reaction rates around 3 to 4 h time frame were used to calculate % inhibitions, from which IC50 values were generated.
uKit with N-Terminal GST Fusion Used for Screening (Seq ID No. 2)

For another assay, the system named is M-NFS-60 cells. The experiment in a line: M-NFS-60 cell proliferation assay (resazurin). It is filed as cell-based. The following applies: 67 h incubation. The procedure: M-NFS-60 cells (catalog #CRL-1838) were obtained from the American Type Culture Collection (ATCC, Manassas, Va.). Briefly, cells were grown in suspension in RPMI 1640 medium supplemented with 10% characterized fetal bovine serum (Invitrogen, Carlsbad, Calif.), 0.05 mM 2-mercaptoethanol, and 20 ng/mL mouse recombinant macrophage colony stimulating factor (M-CSF) at 37° C., 5% CO2, and 95% humidity. Cells were allowed to expand until reaching saturation at which point they were subcultured or harvested for assay use.
M-NFS-60 Cell Proliferation Assay
A serial dilution of test compound was dispensed into a 384-well black clear bottom plate (Corning, Corning, N.Y.). Two thousand five hundred cells were added per well in 50 μL complete growth medium. Plates were incubated for 67 h at 37° C., 5% CO2, and 95% humidity. At the end of the incubation period 10 μL of a 440 μM solution of resazurin (Sigma, St. Louis, Mo.) in PBS was added to each well and incubated for an additional 5 h at 37° C., 5% CO2, and 95% humidity. Plates were read on a Synergy2 reader (Biotek, Winooski, Vt.) using an excitation of 540 nm and an emission of 600 nm. IC50 values were calculated from a series of percent inhibition values determined at a range of inhibitor concentrations using software routines as implemented in the GraphPad Prism software package.
A general note: Resazurin is reduced to fluorescent resorufin, in cell work by metabolically active cells.

The next assay relates to osteoclast precursors. The experiment in a line: Osteoclast tartrate-resistant acid phosphatase assay. Particulars: Osteoclast, 7-14 days, RANKL and M-CSF. It is filed as cell-based. The procedure: Osteoclast Tartrate-Resistant Acid Phosphatase Assay
A serial dilution of test compound was dispensed into a 384-well black clear bottom plate (Nalge Nunc International, Rochester, N.Y.). Compound was diluted by the addition of DMEM media supplemented with 10% characterized fetal bovine serum (Invitrogen, Carlsbad, Calif.). Diluted compound was transferred to a 384-well black clear bottom plate. Two-thousand five hundred osteoclast precursors (Lonza, Walkersville, Md.) were added per well in growth media containing Receptor Activator of Nuclear Factor Kappa-beta ligand (RANKL) and M-CSF (R&D Systems, Minneapolis, Minn.). Plates were incubated for 7-14 days at 37 degrees Celsius, 5% CO2, and 95% humidity to allow differentiation of osteoclast precursors. At the end of the incubation period, 10 μL of supernatant from each well was transferred to a clear 384-well plate. Tartrate-resistant acid phosphatase activity in the supernatant samples was determined using an acid phosphatase assay kit (Sigma, St. Louis, Mo.). Absorbance was measured at 550 nm using a plate reader. Data was analyzed using Prism software (Graphpad, San Diego, Calif.) to calculate IC50 values.

unphosphorylated c-FMS kinase (uFMS, Seq. ID no. 1), sequence (P07333 538-972): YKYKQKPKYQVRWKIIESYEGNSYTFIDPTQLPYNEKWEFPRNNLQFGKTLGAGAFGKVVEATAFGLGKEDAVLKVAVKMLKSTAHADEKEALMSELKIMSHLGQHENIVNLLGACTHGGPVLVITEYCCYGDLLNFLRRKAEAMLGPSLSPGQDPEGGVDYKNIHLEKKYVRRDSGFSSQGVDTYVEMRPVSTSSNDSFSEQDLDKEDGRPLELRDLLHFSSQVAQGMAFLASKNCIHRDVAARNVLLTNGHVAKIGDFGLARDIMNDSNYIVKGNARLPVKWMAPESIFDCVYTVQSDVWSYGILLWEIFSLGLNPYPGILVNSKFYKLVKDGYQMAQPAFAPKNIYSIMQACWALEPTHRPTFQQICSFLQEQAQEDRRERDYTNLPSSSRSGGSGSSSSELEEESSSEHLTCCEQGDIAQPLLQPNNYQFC
unphosphorylated c-KIT kinase (uKIT, Seq. ID no. 2), sequence (P10721 other isoform, or with tags, fused parts or gaps): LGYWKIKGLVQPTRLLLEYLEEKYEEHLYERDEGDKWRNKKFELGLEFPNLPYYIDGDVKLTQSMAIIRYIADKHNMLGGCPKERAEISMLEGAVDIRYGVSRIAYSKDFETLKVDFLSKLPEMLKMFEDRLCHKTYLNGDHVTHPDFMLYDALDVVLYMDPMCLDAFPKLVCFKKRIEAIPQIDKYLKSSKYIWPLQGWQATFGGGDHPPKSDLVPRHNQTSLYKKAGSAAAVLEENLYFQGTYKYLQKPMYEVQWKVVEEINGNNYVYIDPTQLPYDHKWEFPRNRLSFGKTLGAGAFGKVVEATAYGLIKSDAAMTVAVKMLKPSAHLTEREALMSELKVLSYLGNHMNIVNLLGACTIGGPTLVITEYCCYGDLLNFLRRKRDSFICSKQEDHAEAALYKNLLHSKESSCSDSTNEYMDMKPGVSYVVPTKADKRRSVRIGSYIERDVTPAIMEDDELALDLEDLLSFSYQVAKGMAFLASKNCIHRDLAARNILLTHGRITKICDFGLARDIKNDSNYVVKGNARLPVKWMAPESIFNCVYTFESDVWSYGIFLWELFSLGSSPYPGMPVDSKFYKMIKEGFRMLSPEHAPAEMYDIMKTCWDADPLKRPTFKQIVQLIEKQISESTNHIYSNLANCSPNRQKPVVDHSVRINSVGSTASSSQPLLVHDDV

`CCc1nc(NC(=O)N2CCN(C3CCOCC3)C2=O)ccc1Oc1ccnc(-c2ccnc(C)c2)c1` [Example 64, N-(6-ethyl-5-((2′-methyl-[2,4′-bipyridin]-4-yl)oxy)pyridin-2-yl)-2-oxo-3-(tetrahydro-2H-pyran-4-yl)imidazolidine-1-carboxamide]: the IC50 in assay [1] is 0.1 to 1 µM; in assay [2], greater than 1 µM; with M-NFS-60 cells it was greater than 1 µM; with osteoclast precursors, greater than 1 µM.

With `Cc1ncc(-c2cc(Oc3ccc(NC(=O)N4CCN(C5CC5)C4=O)nc3C)ccn2)s1` [Example 65, 3-cyclopropyl-N-(6-methyl-5-((2-(2-methylthiazol-5-yl)pyridin-4-yl)oxy)pyridin-2-yl)-2-oxoimidazolidine-1-carboxamide], the IC50 in assay [1] was 0.01 to 0.1 µM; in assay [2], 0.1 to 1 µM; with M-NFS-60 cells, 0.1 to 1 µM; in the assay on osteoclast precursors, 0.01 to 0.1 µM.

For the compound `Cc1ncc(-c2cc(Oc3ccc(NC(=O)N4CCN(C5CCOCC5)C4=O)nc3C)ccn2)s1` [Example 66, N-(6-methyl-5-((2-(2-methylthiazol-5-yl)pyridin-4-yl)oxy)pyridin-2-yl)-2-oxo-3-(tetrahydro-2H-pyran-4-yl)imidazolidine-1-carboxamide], the IC50 is 0.01 to 0.1 µM in assay [1], 0.1 to 1 µM in assay [2], 0.1 to 1 µM in the assay on M-NFS-60 cells and 0.1 to 1 µM in the assay on osteoclast precursors.

For the compound `COCCN1CCN(C(=O)Nc2ccc(Oc3ccnc(-c4cnc(C)s4)c3)c(C)n2)C1=O` [Example 67, 3-(2-methoxyethyl)-N-(6-methyl-5-((2-(2-methylthiazol-5-yl)pyridin-4-yl)oxy)pyridin-2-yl)-2-oxoimidazolidine-1-carboxamide], the IC50 was 0.1 to 1 µM in assay [1], greater than 1 µM in assay [2], 0.1 to 1 µM in the assay with M-NFS-60 cells and 0.1 to 1 µM in the assay on osteoclast precursors.

For `Cc1ncc(-c2cc(Oc3ccc(NC(=O)N4CCN(C)C4=O)nc3C)ccn2)s1` [Example 73, 3-methyl-N-(6-methyl-5-((2-(2-methylthiazol-5-yl)pyridin-4-yl)oxy)pyridin-2-yl)-2-oxoimidazolidine-1-carboxamide], the IC50 in assay [1] was 0.1 to 1 µM; in assay [2], greater than 1 µM; in the assay on M-NFS-60 cells, greater than 1 µM; with osteoclast precursors, 0.1 to 1 µM.

Consider `Cc1ncc(-c2cc(Oc3ccc(NC(=O)N4CCN(CC(F)(F)F)C4=O)nc3C)ccn2)s1` [Example 74, N-(6-methyl-5-((2-(2-methylthiazol-5-yl)pyridin-4-yl)oxy)pyridin-2-yl)-2-oxo-3-(2,2,2-trifluoroethyl)imidazolidine-1-carboxamide], for which the IC50 in assay [1] lay in the range of 0.01 to 0.1 µM; in assay [2], 0.1 to 1 µM; in the assay with M-NFS-60 cells, 0.1 to 1 µM; in the assay on osteoclast precursors it was 0.01 to 0.1 µM.

As to `Cc1ncc(-c2cc(Oc3ccc(NC(=O)N4CCN(C5CCCC5)C4=O)nc3C)ccn2)s1` [Example 75, 3-cyclopentyl-N-(6-methyl-5-((2-(2-methylthiazol-5-yl)pyridin-4-yl)oxy)pyridin-2-yl)-2-oxoimidazolidine-1-carboxamide], the IC50 is less than 0.01 µM in assay [1], 0.1 to 1 µM in assay [2], 0.01 to 0.1 µM in the assay on M-NFS-60 cells and 0.01 to 0.1 µM in the assay with osteoclast precursors.

Take `Cc1cn(-c2cc(Oc3ccc(NC(=O)N4CCN(CC(F)(F)F)C4=O)nc3)ccn2)cn1` [Example 76, N-(5-((2-(4-methyl-1H-imidazol-1-yl)pyridin-4-yl)oxy)pyridin-2-yl)-2-oxo-3-(2,2,2-trifluoroethyl)imidazolidine-1-carboxamide]: the IC50 lay in the range of 0.01 to 0.1 µM in assay [1], 0.1 to 1 µM in assay [2], 0.1 to 1 µM with M-NFS-60 cells and 0.1 to 1 µM in the assay with osteoclast precursors.

`Cc1cn(-c2cc(Oc3ccc(NC(=O)N4CCN(C5CCOCC5)C4=O)nc3)ccn2)cn1` [Example 77, N-(5-((2-(4-methyl-11H-imidazol-1-yl)pyridin-4-yl)oxy)pyridin-2-yl)-2-oxo-3-(tetrahydro-2H-pyran-4-yl)imidazolidine-1-carboxamide]: the IC50 in assay [1] fell in the range of 0.01 to 0.1 µM; in assay [2] it was 0.01 to 0.1 µM; in the assay on M-NFS-60 cells, 0.1 to 1 µM; with osteoclast precursors, 0.1 to 1 µM.

For `CCc1nc(NC(=O)N2CCN(C3CCCC3)C2=O)ccc1Oc1ccnc(-c2cnc(C)s2)c1` [Example 78, 3-cyclopentyl-N-(6-ethyl-5-((2-(2-methylthiazol-5-yl)pyridin-4-yl)oxy)pyridin-2-yl)-2-oxoimidazolidine-1-carboxamide], the IC50 is 0.01 to 0.1 µM in assay [1], greater than 1 µM in assay [2], greater than 1 µM in the assay on M-NFS-60 cells and 0.1 to 1 µM in the assay on osteoclast precursors.

Consider `CCN1CCN(C(=O)Nc2ccc(Oc3ccnc(-n4cnc(C)c4)c3)cn2)C1=O` [Example 79, 3-ethyl-N-(5-((2-(4-methyl-1H-imidazol-1-yl)pyridin-4-yl)oxy)pyridin-2-yl)-2-oxoimidazolidine-1-carboxamide], for which the IC50 in assay [1] is 0.1 to 1 µM; in assay [2], 0.1 to 1 µM; in the assay on M-NFS-60 cells, greater than 1 µM; with osteoclast precursors it was 0.1 to 1 µM.

For `COCCN1CCN(C(=O)Nc2ccc(Oc3ccnc(-c4cn(C)cn4)c3)c(C)n2)C1=O` [Example 81, 3-(2-methoxyethyl)-N-(6-methyl-5-((2-(1-methyl-1H-imidazol-4-yl)pyridin-4-yl)oxy)pyridin-2-yl)-2-oxoimidazolidine-1-carboxamide], the IC50 in assay [1] was 0.01 to 0.1 µM; in assay [2], greater than 1 µM; with M-NFS-60 cells it was 0.1 to 1 µM; with osteoclast precursors, 0.1 to 1 µM.

`CCN1CCN(C(=O)Nc2ccc(Oc3ccnc(-c4cn(C)cn4)c3)cn2)C1=O` [Example 82, 3-ethyl-N-(5-((2-(1-methyl-1H-imidazol-4-yl)pyridin-4-yl)oxy)pyridin-2-yl)-2-oxoimidazolidine-1-carboxamide]: the IC50 in assay [1] was 0.01 to 0.1 µM; in assay [2], less than 0.01 µM; in the assay with M-NFS-60 cells, 0.01 to 0.1 µM; with osteoclast precursors, 0.01 to 0.1 µM.

In the case of `Cc1cc(-c2cc(Oc3ccc(NC(=O)N4CCN(C5CCOCC5)C4=O)nc3C)ccn2)ccn1` [Example 87, N-(6-methyl-5-((2′-methyl-[2,4′-bipyridin]-4-yl)oxy)pyridin-2-yl)-2-oxo-3-(tetrahydro-2H-pyran-4-yl)imidazolidine-1-carboxamide], the IC50 in assay [1] is less than 0.01 µM; in assay [2], 0.01 to 0.1 µM; in the assay with M-NFS-60 cells, 0.01 to 0.1 µM; with osteoclast precursors, 0.01 to 0.1 µM.
